Patent publication US20120040966A1, “ANTI-VIRAL COMPOUNDS, TREATMENT, AND ASSAY” (priority 2008, published 2012)
Read-outs that look alike come from different tables or passages of the source.

What was measured:
[1] = tested on: influenza strain A/VN/1203/2004 (H5N1); assay: microbe, parasite or virus in culture; format: cell-based, Influenza A virus (H5N1)
[2] = tested on: Influenza virus strain A/CA/04/2009 (H1N1); assay: organism not typed; format: cell-based; conditions: MDCK, 72 h, read-out: H1N1 EC50 (@ 50% Via)
[3] = tested on: Madin Darby Canine Kidney (MDCK) cells; assay: cells; format: cell-based; conditions: Canis lupus familiaris, MDCK, read-out: IC50 (toxicity)
[4] = Influenza A virus, H5N1, MDCK, 72 h, read-out: H5N1 EC50 (@ 50% Via)
[5] = Influenza A virus, H5N1, MDCK, 72 h, read-out: H5N1 EC50 (Inf Pt)

| SMILES | EC50 [1, 4] [µM] | EC50 [1, 5] [µM] | EC50 ([1]; read-out: H5N1 EC50 (@ 50% Via)) [µM] | EC50 ([1]; read-out: H5N1 EC50 (Inf Pt)) [µM] | EC50 [2] [µM] | IC50 [3] [µM] |
| --- | --- | --- | --- | --- | --- | --- |
| COc1ccc(-c2nc(=O)[nH]c3c2CCc2ccccc2-3)cc1 [compound 22125] | 0.96 | 0.92 | 1.62 | 1.45 | 24 | > 50 |
| COc1ccc(C2NC(=O)NC3=C2CCc2c(OC)cccc23)cc1Br (stereo not drawn) [compound 22722] | > 0.062 | > 0.062 |  |  | 1.1 | > 0.062 |
| COc1cccc(C2NC(=O)NC3=C2COc2ccccc23)c1 (stereo not drawn) [compound 22107] | > 50 | > 50 |  |  | 46 | > 50 |
| O=C1NC2=C(COc3ccccc32)C(c2ccc(F)c(Br)c2)N1 (stereo not drawn) [compound 23098] | 1.2 | 1.3 |  |  | > 40 | > 40 |
